Where no end group is shown, it is not given here.

Test [1] has as its system normal human epidermal keratinocytes. Description: proliferation assay on normal human epidermal keratinocytes. The test is classed as cell-based. Here is the method: Pieces of skin are washed thoroughly for 30 minutes in Betadine solution (10% iodine) followed by 2×10 minute washes in PBS. After removal of the subcutaneous tissue and dermis with a scalpel the skin is dissected into 5×10 mm pieces. The skin pieces are rinsed 5× in PBS followed by incubating in Dispase (grade 11, 2.4 U/ml, Boehringer Mannheim) for 18 hours at4° C.
The skin pieces are then placed dermis side down in 100 mm Petri dishes and are irrigated with 5 ml KSFM. The epidermis is peeled off with forceps and incubated in 10 ml 1× Trypsin/EDTA solution for 10 minutes at 37° C. followed by addition of 10 ml KSFM. The sample is mechanically agitated by aspiration and ejection from a transfer pipette. The resulting cell suspension is sieved using a cell strainer (Becton Dickinson) rinsing through with KSFM. The isolated epidermal cells are then washed twice in KSFM by centrifugation at 100 g for 10 min. Cells are seeded as below.
(§1) Primary cultures were seeded at 3500 cells/cm^2 in K-SFM 25 cm^2 tissue culture flasks. The medium was changed (5 ml per flask) the day after seeding and every other day thereafter. At 70-80% confluence the cells were subcultured by seeding 3500 cells/cm^2 in new 25 cm^2 flasks. On the day that the subcultures reached confluence the medium was switched to medium containing the experimental treatments.
(§2) The cells were cultured for 4 days, replacing the experimental medium every other day, before harvesting the cells.
Cell Seeding and Analysis: Purchased secondary cultures or primary cultures (from donor skin) are seeded at 3500 cells/cm^2 in K-SFM 25 cm^2 tissue culture flasks. The medium is changed (5 ml per flask) the day after seeding and every other day thereafter. […]
The medium is replaced every other day. […] The cell suspension is added to 20 ml Isoton solution in a Coulter counter “Accuvette” and the cells are counted. On each harvest, 3 wells of cells are counted for each treatment and 3 counts were made for each well.
Cell number is calculated as follows: Coulter Counter removes 500 μl of 20 ml sample ( 1/40). […]

The test system is the same in test [2]. Description: differentiation assay (K1/K10) on normal human epidermal keratinocytes. Type of test: cell-based. The following applies: for differentiation: Carbenoxolone 6 μM, Disulfiram 15 μM or Citral 10 μM, 1.2 mM calcium, FIG. 11. Here is the method:
as §1, §2
RNA extraction is carried out according to the manufacturers instructions using the RNeasy kit (QIAGEN). 20 μg of RNA for each treatment was separated on a 1.2% agarose (1.8% formaldehyde) gel and transferred onto a nylon membrane (Zeta probe GT membranes, BioRad) by capillary transfer. The RNA is fixed to the membrane by UV crosslinking. DNA probes for the differentiation markers K1 and K10(50 ng) are labelled with [α-^32P] dCTP using the Prime-It RmT Primer labeling kit (Stratagene) following the manufacturer's instructions. Unincorporated nucleotides are removed by elution through a Microspin G25 column (Pharmacia Biotech). The blots are wetted in 0.25M sodium phosphate (pH 7.2)/7% SDS for 30 minutes at 65° C. Fresh hybridisation solution is added along with the radiolabelled probe and the blot is hybridised overnight at 65° C.
The blot is washed for 2×5 minutes in 0.25M sodium phosphate (pH 7.2), 7% SDS and then for 2×5 minutes in 20 mM sodium phosphate (pH 7.2), 5% SDS at 65° C. The wash steps are repeated until a clear distinction can be made between the signal and non-specific background. The blot is exposed to x-ray film for 24 hours before developing.
Synthesis of mRNA for the K1 and K10 keratin (markers for commitment to terminal differentiation) is examined by quantitative reverse transcription PCR (RT-PCR). Synthesis of mRNA for Cyclin D (a marker for cell proliferation) is also assayed by RT-PCR. […] The RNA is blotted onto a nylon membrane by capillary transfer and expression of K1 mRNA is determined by Northern hybridisation with a radiolabelled DNA probe. […]

The mark [3] stands for this setting: Carbenoxolone 6 μM, Disulfiram 15 μM or Citral 10 μM.

Take `CC1(C)[C@@H](OC(=O)CCC(=O)O)CC[C@]2(C)[C@H]3C(=O)C=C4[C@@H]5C[C@@](C)(C(=O)O)CC[C@]5(C)CC[C@@]4(C)[C@]3(C)CC[C@@H]12` [Carbenoxolone]: in test [1] (setting [3]), the proliferation entry is given as “inhibit proliferation”. Besides, in test [2], the differentiation result was “increase differentiation”.

For the molecule `CC(C)=CCCC(C)=CC=O` [Citral, 3,7-dimethyl-2,6-octadienal], the proliferation result in test [1] (setting [3]) is “inhibit proliferation”. In addition, the differentiation entry in test [2] was “increase differentiation”.

In the case of GRVRLLNNWDVCA, the proliferation result in test [1] (peptide 6 μM, RBP 0.6 μM, Ca 1.2 mM) was “reduces proliferation”. Besides, in test [2] (peptide 6 μM, RBP 0.6 μM, Ca 1.2 mM, FIG. 6), the “differentiation (expression of K1 and K10 markers)” value is “enhances the expression of K1 and K10 markers”.

Values taken from patent publication US8048918B2, “Treatment of hyperproliferative diseases” (Vampex Limited, priority 2000, dated 2011).
